From US20240180893A1, “METHODS OF TREATMENT OF BREAST CANCER” (AstraZeneca AB, priority 2022, published 2024) come the findings set out here.

The subject of test [1] is HR+, HER2− metastatic or loco-regionally recurrent breast cancer. The test can be described thus: SERENA-2 phase 2 study: progression free survival (PFS), RECIST 1.1, assessed by Investigator. The test is classed as in vivo, human (post-menopausal women). From the text:
In embodiments of the present speciation the method of treatments, ngSERD for use in treatment or for use in the manufacture of a medicament, kit or pharmaceutical composition for use delivers an improvement in the time to disease progression or progression free survival (PFS) relative to that obtained from use of fulvestrant (the first generation SERD). In such embodiment the PFS improvement is relative to that observed with standard of care, i.e. fulvestrant administered at the approved dose of 500 mg once monthly by injection. Clinical activity as assessed by PFS can be determined by the standard assessment of tumour response as per RECIST 1.1 (Eisenhauser et al., Eur J Cancer 2009 January; 45(2):228-47). The RECIST criteria can be evaluated by the treating physician/investigator or by Blinded Independent Central Review (BICR).
In the SERENA-2 clinical trial, further details of which are provided below, the efficacy of camizestrant administered once daily in tablet form at doses of 75 mg and 150 mg as a treatment for patients with HR+, HER2− metastatic or loco-regionally recurrent breast cancer that the breast cancer has recurred or progressed following at least one prior line of endocrine therapy was assessed. The control arm patient in this study were treated with standard of care fulvestrant, the first generation SERD, administered as once monthly 500 mg injection. The study was powered to differentiate between the camizestrant and standard of care, fulvestrant (F), treatment arms, but was not powered to differentiate between the 75 mg and 150 mg camizestrant dose cohorts.
A randomised, open-label, parallel-group, multicentre phase 2 study comparing the efficacy and safety of oral AZD9833 versus fulvestrant in women with advanced er-positive her2-negative breast cancer was carried out according to the following protocol and schedule of activities. The study evaluated the efficacy and safety of AZD9833 (75, 150 and 300 mg, oral [PO]) administered once daily as a monotherapy in comparison with fulvestrant administered according to its label (i. e., slow IM injection into the buttocks [1 to 2 minutes per injection] as two 5-mL injections, 1 in each buttock, on Day 1, Day 15, Day 29 and 4-weekly thereafter).
This is a randomised, open-label, parallel-group, multicentre Phase 2 study to compare the efficacy and safety of daily PO AZD9833 versus IM fulvestrant in women with advanced ER positive HER2 negative breast cancer. Post-menopausal women with histologically or cytologically confirmed metastatic or loco-regionally recurrent disease before randomisation and fulfilling all of the inclusion criteria and none of the exclusion criteria will be included. Randomisation will be stratified according to the prior use of CDK4/6 inhibitors and the presence of liver and/or lung metastases.
After the screening visit and confirmation of eligibility, patients will be randomly assigned in a 1:1:1:1 ratio to receive 1 of the following 4 treatments, consisting in 4-week treatment cycles until disease progression (assessed by the Investigator as defined by Response Evaluation Criteria in Solid Tumours [RECIST] version 1.1): • AZD9833 (75 mg, PO, once daily) • AZD9833 (150 mg, PO, once daily) • AZD9833 (300 mg, PO, once daily) • Fulvestrant (500 mg IM, Day 1, Day 15, Day 29, and 4-weekly thereafter)
Efficacy assessments. Assessment of tumour response. The assessment of tumour response per RECIST version 1.1 will be used to determine the clinical activity (assessed by PFS) and anti-tumour activity (assessed by ORR, clinical benefit rate [CBR]) of AZD9833 and fulvestrant.
Investigator's assessment of tumour response per RECIST version 1.1. Tumour response will be assessed by the Investigators per RECIST version 1.1 (Eisenhauer et al. 2009). From the Investigator's review of the imaging scans, the evaluation of TLs, NTLs and new lesions will be used to determine the overall visit response for each patient. […]

Test [2] shares this test system. As to the kind of experiment: SERENA-2 phase 2 study: PFS, RECIST 1.1, by Blinded Independent Central Review (BICR). To be noted: all patients. The test is classed as in vivo, human (post-menopausal women). The text has this: Measures to minimise bias: randomisation and blinding. This is an open-label study. All patients will receive active treatment. As the Investigators will not be blinded to study treatments, a BICR of tumour scans will be performed to provide independent tumour response assessment in addition to response evaluation by Investigator. To reduce potential bias during the study, eligible patients will be randomly allocated at a 1:1:1:1 ratio to receive 1 of the 4 study treatments.
Blinded Independent Central Review of tumour assessments. Coded copies of all imaging assessments (regardless of modality and including unscheduled visit scans) will be sent to an appointed Contract Research Organisation (CRO) for central analysis. Results of this independent review will not be communicated to Investigators, and the management of patients will be based solely upon the results of the RECIST assessment conducted by the Investigator. The imaging scans will be reviewed by 2 independent radiologists using RECIST version 1.1 and will be adjudicated, if required (i.e., 2 reviewers will review the scans and, in case of a disagreement, adjudication is performed by a separate reviewer). The independent reviewers will be blinded to study treatment.
The BICR will be conducted on an ongoing basis throughout the study. Where possible scans will be batched, and an in-patient series of assessments read together. For each patient, the BICR will define the overall visit response (i.e., the response obtained overall at each visit by assessing TLs, NTLs, and new lesions) and no programmatic derivation of overall visit response is necessary.
Blinded independent central review of tumour response. A sensitivity analysis for the primary endpoint for this study will be based on the BICR of the radiological scans. For each patient, the BICR will define the overall visit response (i.e., the response obtained overall at each visit by assessing TLS, NTLs and new lesions) data and no programmatic derivation of visit response is necessary. PFS will be derived programmatically from the overall visit responses determined for each visit. A BICR of all patients will be performed for the final database lock for the primary analysis of PFS. The BICR will cover all available scans up to the respective DCO.
As a sensitivity analysis to the primary endpoint, the above analysis methods will be repeated based on the BICR.

[3] abbreviates: fulvestrant 500 mg once monthly injection, all patients, by Investigator.
[4] abbreviates: fulvestrant 500 mg, ESR1m subgroup.
Setting [5] is: fulvestrant 500 mg, subgroup with metastases to the liver and/or lungs.
Where [6] appears, read: fulvestrant 500 mg, subgroup with prior CDK4/6 inhibitor therapy.
Where [7] appears, read: camizestrant 75 mg once daily, all patients, by Investigator.
Setting [8] is: camizestrant 75 mg, subgroup with metastases to the liver and/or lungs.
[9] abbreviates: camizestrant 75 mg, subgroup with prior CDK4/6 inhibitor therapy.
The mark [10] stands for this setting: camizestrant 150 mg once daily, all patients, by Investigator.
Setting [11] is: camizestrant 150 mg, subgroup with metastases to the liver and/or lungs.
Setting [12] is: camizestrant 150 mg, subgroup with prior CDK4/6 inhibitor therapy.

On to `C[C@]12CC[C@@H]3c4ccc(O)cc4C[C@@H](CCCCCCCCC[S+]([O-])CCCC(F)(F)C(F)(F)F)[C@H]3[C@@H]1CC[C@@H]2O` (some centres unmarked) [fulvestrant, reference compound], for which the “PFS events [no.]” value in test [1] (fulvestrant 500 mg (n = 35), subgroup with mutation to the estrogen receptor (ESR1m)) was 31; in test [1] (fulvestrant 500 mg (n = 43), subgroup with metastases to the liver and/or lungs), 39. Further, the “PFS events [n]” value in test [1] (fulvestrant 500 mg (n = 37), subgroup with prior CDK4/6 inhibitor therapy) stood at 33. In addition, the “Median PFS” value is recorded as 3.7 months in test [1] (setting [3]); 2.2 months in test [1] (setting [4]); 2.0 months in test [1] (setting [5]); 2.1 months in test [1] (setting [6]); 3.7 months in test [2] (fulvestrant 500 mg once monthly injection). The “Proportion of patients without progression at 12 m” value in test [1] (setting [3]) is reported as 23.8%. Further, the “PFS events (%)” value is given as “(88.6) %” in test [1] (setting [4]), “(90.7) %” in test [1] (setting [5]) and “(89.2) %” in test [1] (setting [6]).

On to `C[C@@H]1Cc2c(ccc3[nH]ncc23)[C@@H](c2ccc(NC3CN(CCCF)C3)cn2)N1CC(F)(F)F` [camizestrant, N-(1-(3-fluoropropyl)azetidin-3-yl)-6-((6S,8R)-8-methyl-7-(2,2,2-trifluoroethyl)-6,7,8,9-tetrahydro-3H-pyrazolo[4,3-f]isoquinolin-6-yl)pyridin-3-amine], for which the “PFS events [no.]” value is on record as 15 in test [1] (AZD9833 75 mg (n = 22), subgroup with mutation to the estrogen receptor (ESR1m)); 22 in test [1] (AZD9833 150 mg (n = 26), subgroup with mutation to the estrogen receptor (ESR1m)); 31 in test [1] (camizestrant 75 mg (n = 43), subgroup with metastases to the liver and/or lungs); 32 in test [1] (camizestrant 150 mg (n = 43), subgroup with metastases to the liver and/or lungs). The “Hazard ratio vs fulvestrant” value in test [1] (AZD9833 75 mg, ESR1m subgroup) is 0.33; in test [1] (AZD9833 150 mg, ESR1m subgroup), 0.55; in test [1] (setting [8]) it was 0.43; in test [1] (setting [9]) it was 0.49; in test [1] (setting [11]), 0.55; in test [1] (setting [12]), 0.68. For the same molecule, the “Median PFS” value in test [1] (AZD9833 75 mg, ESR1m subgroup) stood at 6.3 months; in test [1] (AZD9833 150 mg, ESR1m subgroup), 9.2 months; in test [1] (camizestrant 75 mg tablet once daily, all patients, by Investigator), 7.2 months; in test [1] (setting [8]) it was 7.2 months; in test [1] (setting [9]), 5.5 months; in test [1] (camizestrant 150 mg tablet once daily, all patients, by Investigator) it was 7.7 months. The “Median PFS” value turned out to be 5.6 months in test [1] (setting [11]), 3.8 months in test [1] (setting [12]), 7.4 months in test [2] (camizestrant 75 mg once daily) and 12.7 months in test [2] (camizestrant 150 mg once daily). The “PFS events (%)” value is “(68.2) %” in test [1] (AZD9833 75 mg, ESR1m subgroup); “(84.6) %” in test [1] (AZD9833 150 mg, ESR1m subgroup); “(72.1) %” in test [1] (setting [8]); “(76.3) %” in test [1] (setting [9]); “(74.4) %” in test [1] (setting [11]); “(78.4) %” in test [1] (setting [12]). Besides, the “Improvement of PFS over fulvestrant” value in test [1] (both camizestrant arms (75 mg and 150 mg), all comer population, by either Investigator or BICR) is “at least 3.5 months”. Moreover, the “PFS events [n]” value in test [1] (camizestrant 75 mg (n = 38), subgroup with prior CDK4/6 inhibitor therapy) came out at 29; in test [1] (camizestrant 150 mg (n = 37), subgroup with prior CDK4/6 inhibitor therapy), 29. Besides, the “Hazard ratio for disease progression relative to fulvestrant” value in test [1] (setting [7]) was 0.58; in test [1] (setting [10]), 0.67; in test [2] (camizestrant 75 mg once daily) it was 0.56; in test [2] (camizestrant 150 mg once daily), 0.47. Further, the “Proportion of patients without progression at 12 m” value in test [1] (setting [7]) is on record as 34.3%; in test [1] (setting [10]), 44.5%.
